Calls of active or inactive are those of the source. The calls are words filed in the database; no cut-off is given here.
Key:
SH-SY5Y = assay: Cytotoxicity against human SH-SY5Y cells expressing low level of topoisomerase I/II measured after 72 hrs by MTT assay; assay type: functional, cell-based
MDA-MB-231 = assay: Cytotoxicity against human MDA-MB-231 cells expressing high level of topoisomerase I/II measured after 72 hrs by MTT assay; assay type: functional, cell-based; details: MDA-MB-231, 72 h
HCT-116 [1] = assay: Cytotoxicity against human HCT-116 cells expressing high level of topoisomerase I/II measured after 72 hrs by MTT assay; assay type: functional, cell-based; details: HCT-116, 72 h
MCF7 = assay: Cytotoxicity against human MCF7 cells expressing high level of topoisomerase I/II measured after 72 hrs by MTT assay; assay type: functional, cell-based; details: MCF7, 72 h
A-375 [2] = assay: Cytotoxicity against human A-375 cells expressing high level of topoisomerase I/II measured after 72 hrs by MTT assay; assay type: functional, cell-based; details: A-375, 72 h
A549 = assay: Cytotoxicity against human A549 cells expressing high level of topoisomerase I/II measured after 72 hrs by MTT assay; assay type: functional, cell-based; details: A549, 72 h
[3] = Cytotoxicity against human L02 cells measured after 72 hrs by MTT assay; assay type: toxicity, cell-based
[4] = Cytotoxicity against human HEK293T cells measured after 72 hrs by MTT assay; assay type: toxicity, cell-based, HEK-293T
[5] = Aqueous solubility of the compound in saline equilibrating for 24 hrs by HPLC analysis; assay type: physicochemical
[6] = molecular target: T1, DNA topoisomerase 1 (Homo sapiens) (UniProt P11387); assay: Inhibition of DNA topoisomerase I (unknown origin) relaxation activity at 100 uM incubated for 30 mins by chemiDoc system
T1 sequence (whole entry): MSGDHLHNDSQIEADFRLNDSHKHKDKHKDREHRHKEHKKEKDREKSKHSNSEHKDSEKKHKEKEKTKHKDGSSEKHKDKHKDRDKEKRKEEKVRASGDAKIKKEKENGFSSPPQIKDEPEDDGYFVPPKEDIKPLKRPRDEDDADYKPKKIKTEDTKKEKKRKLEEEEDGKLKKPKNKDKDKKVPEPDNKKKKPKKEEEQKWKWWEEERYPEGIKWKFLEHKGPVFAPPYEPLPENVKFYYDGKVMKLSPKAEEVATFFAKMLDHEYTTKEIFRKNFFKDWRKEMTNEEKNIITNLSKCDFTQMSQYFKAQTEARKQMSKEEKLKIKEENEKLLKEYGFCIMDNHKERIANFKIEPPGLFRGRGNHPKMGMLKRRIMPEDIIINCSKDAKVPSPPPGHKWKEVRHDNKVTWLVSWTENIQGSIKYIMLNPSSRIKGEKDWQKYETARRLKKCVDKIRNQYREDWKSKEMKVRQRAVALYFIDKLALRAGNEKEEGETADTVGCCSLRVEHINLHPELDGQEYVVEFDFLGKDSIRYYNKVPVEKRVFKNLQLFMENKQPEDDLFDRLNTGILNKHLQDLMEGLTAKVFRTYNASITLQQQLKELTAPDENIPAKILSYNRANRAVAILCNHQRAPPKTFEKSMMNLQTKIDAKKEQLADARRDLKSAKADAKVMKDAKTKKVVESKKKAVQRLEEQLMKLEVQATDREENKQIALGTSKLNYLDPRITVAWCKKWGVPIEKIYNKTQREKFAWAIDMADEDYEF

[7] = molecular target: DNA topoisomerase 2-alpha (Homo sapiens) (UniProt P11388); assay: Inhibition of human DNA topoisomerase II-alpha relaxation activity at 100 uM incubated for 30 mins by chemiDoc system
Chain of DNA topoisomerase 2-alpha (Homo sapiens) (P11388 whole entry): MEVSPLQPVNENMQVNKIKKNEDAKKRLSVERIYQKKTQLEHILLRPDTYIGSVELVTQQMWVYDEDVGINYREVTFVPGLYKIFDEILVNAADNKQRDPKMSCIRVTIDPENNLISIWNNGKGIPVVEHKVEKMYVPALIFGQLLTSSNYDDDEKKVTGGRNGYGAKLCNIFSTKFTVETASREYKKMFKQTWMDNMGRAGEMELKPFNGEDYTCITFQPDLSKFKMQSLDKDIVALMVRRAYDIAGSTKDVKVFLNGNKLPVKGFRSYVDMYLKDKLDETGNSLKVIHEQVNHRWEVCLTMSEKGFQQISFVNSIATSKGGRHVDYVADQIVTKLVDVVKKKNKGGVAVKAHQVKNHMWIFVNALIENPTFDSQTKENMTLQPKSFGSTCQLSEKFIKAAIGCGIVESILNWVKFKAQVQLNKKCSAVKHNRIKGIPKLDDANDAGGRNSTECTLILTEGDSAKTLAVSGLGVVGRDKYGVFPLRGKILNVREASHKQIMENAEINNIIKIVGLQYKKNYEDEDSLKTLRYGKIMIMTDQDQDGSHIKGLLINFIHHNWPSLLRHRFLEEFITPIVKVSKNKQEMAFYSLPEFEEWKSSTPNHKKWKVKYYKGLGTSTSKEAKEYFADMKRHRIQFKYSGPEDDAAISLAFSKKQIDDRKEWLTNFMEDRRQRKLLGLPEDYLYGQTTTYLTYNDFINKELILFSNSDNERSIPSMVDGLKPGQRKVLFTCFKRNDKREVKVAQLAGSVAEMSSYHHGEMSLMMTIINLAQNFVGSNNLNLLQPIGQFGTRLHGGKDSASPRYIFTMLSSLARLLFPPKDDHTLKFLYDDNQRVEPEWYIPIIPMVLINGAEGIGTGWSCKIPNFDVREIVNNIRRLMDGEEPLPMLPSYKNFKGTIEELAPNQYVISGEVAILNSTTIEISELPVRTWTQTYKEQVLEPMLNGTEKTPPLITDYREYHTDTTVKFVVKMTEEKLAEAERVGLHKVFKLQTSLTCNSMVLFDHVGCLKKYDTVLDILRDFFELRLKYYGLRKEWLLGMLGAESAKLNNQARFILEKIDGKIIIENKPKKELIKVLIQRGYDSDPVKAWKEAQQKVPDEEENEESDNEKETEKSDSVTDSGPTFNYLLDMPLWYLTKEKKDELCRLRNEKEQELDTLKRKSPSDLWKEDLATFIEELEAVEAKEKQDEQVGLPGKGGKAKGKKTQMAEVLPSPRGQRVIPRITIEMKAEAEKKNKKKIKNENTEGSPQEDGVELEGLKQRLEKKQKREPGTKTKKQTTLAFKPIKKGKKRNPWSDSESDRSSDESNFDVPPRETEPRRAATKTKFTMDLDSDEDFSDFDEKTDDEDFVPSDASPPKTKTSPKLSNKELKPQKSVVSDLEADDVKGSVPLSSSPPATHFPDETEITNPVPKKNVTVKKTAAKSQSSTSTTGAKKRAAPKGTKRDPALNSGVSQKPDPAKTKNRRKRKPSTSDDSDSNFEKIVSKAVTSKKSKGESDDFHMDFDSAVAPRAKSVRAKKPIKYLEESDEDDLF

[8] = molecular target: DNA topoisomerase 2-alpha (Homo sapiens) (UniProt P11388); assay: Poison activity at human topoisomerase II-alpha assessed as stabilization of enzyme-DNA cleavage complex by measuring nicked DNA formation at 100 uM after 60 mins by agarose gel electrophoresis method
HCT-116 [9] = assay: Antiproliferative activity against doxorubicin resistant human HCT-116 cells measured after 72 hrs by MTT assay; assay type: functional, cell-based; details: HCT-116, 72 h
HCT-116 [10] = assay: Antiproliferative activity against doxorubicin sensitive human HCT-116 cells measured after 72 hrs by MTT assay; assay type: functional, cell-based; details: HCT-116, 72 h
A-375 [11] = assay: Induction of cell cycle arrest in human A-375 cells assessed as accumulation of cells at G1 phase at 80 nM incubated for 24 hrs by PI based flow cytometric analysis (RVB = 52.94%); assay type: functional
A-375 [12] = assay: Induction of cell cycle arrest in human A-375 cells assessed as accumulation of cells at S phase at 80 nM incubated for 24 hrs by PI based flow cytometric analysis (RVB = 26.73%); assay type: functional
A-375 [13] = assay: Induction of cell cycle arrest in human A-375 cells assessed as accumulation of cells at G2 phase at 80 nM incubated for 24 hrs by PI based flow cytometric analysis (RVB = 20.34%); assay type: functional
[14] = Volume of distribution in Kunming mouse plasma at 10 mg/kg, iv administered as single dose measured after 5 to 360 mins by HPLC analysis; assay type: ADME, organism-based; details: time 5-360 min
[15] = Half life in Kunming mouse plasma at 10 mg/kg, iv administered as single dose measured after 5 to 360 mins by HPLC analysis; assay type: ADME, organism-based; details: time 5-360 min
[16] = Tmax in Kunming mouse plasma at 10 mg/kg, iv administered as single dose measured after 5 to 360 mins by HPLC analysis; assay type: ADME, organism-based; details: time 5-360 min
[17] = Cmax in Kunming mouse plasma at 10 mg/kg, iv administered as single dose measured after 5 to 360 mins by HPLC analysis; assay type: ADME, organism-based; set-up: dose 10 mg/kg, time upper 360 min, time lower 5 min, route iv
[18] = AUC in Kunming mouse plasma at 10 mg/kg, iv administered as single dose measured after 5 to 360 mins by HPLC analysis; assay type: ADME, organism-based; set-up: time upper 360 min, time lower 5 min, dose 10 mg/kg, route iv
[19] = Microsomal stability in mouse liver microsomes assessed as clearance measured at 2 ug/ml upto 60 mins in presence of NADPH generating system and UGT incubation system by phase II metabolic stability kit method; assay type: ADME, Microsome; details: dose 2 µg/ml, read-out: CLH
[20] = Microsomal stability in mouse liver microsomes assessed as half life measured at 2 ug/ml upto 60 mins in presence of NADPH generating system and UGT incubation system by phase II metabolic stability kit method; assay type: ADME, Microsome; details: dose 2 µg/ml
[21] = Metabolic stability in mouse plasma upto 5 hrs by HPLC-UV analysis; assay type: ADME, cell-free
[22] = Selectivity index, ratio of IC50 for human L02 cells to IC50 for human A-375 cells; assay type: toxicity; details: L02 cells and A-375 cells, read-out: Ratio IC50
[23] = Clearance in Kunming mouse plasma at 10 mg/kg, iv administered as single dose measured after 5 to 360 mins by HPLC analysis; assay type: ADME, organism-based; details: time 5-360 min
A-375 [24] = assay: In vivo antitumor activity against human A-375 cells xenografted in BALB/c nude mouse assessed as shrinkage of tumor tissue treated after 7 days of tumor implantation on right flank subcutaneously at 10 mg/kg, iv administered once per 2 days for 14 days measured once every two days; assay type: functional, organism-based; details: time 14.0 day
A-375 [25] = assay: In vivo antitumor activity against human A-375 cells xenografted in BALB/c nude mouse assessed as decrease in tumor weight treated after 7 days of tumor implantation on right flank subcutaneously at 10 mg/kg, iv administered once per 2 days for 14 days measured once every two days; assay type: functional, organism-based; details: time 14.0 day
[26] = Toxicity in BALB/c nude mouse xenografted with human A-375 cells assessed as body weight loss treated after 7 days of tumor implantation on right flank subcutaneously at 10 mg/kg, iv administered once per 2 days for 14 days measured once every two days; assay type: organism-based; details: in vivo, 336 h, time 14 day
[27] = Toxicity in BALB/c nude mouse xenografted with human A-375 cells assessed as tolerability treated after 7 days of tumor implantation on right flank subcutaneously at 10 mg/kg, iv administered once per 2 days for 14 days measured once every two days; assay type: organism-based; details: in vivo, 336 h, time 14 day
A-375 [28] = assay: (§1) In vivo induction of apoptosis in human A-375 cells xenografted in BALB/c nude mouse treated after 7 days of tumor implantation on right flank subcutaneously at 10 mg/kg, iv administered once per 2 days for 14 days by measuring TUNEL positive cells under a light microscope; assay type: functional, organism-based; details: time 14.0 day
A-375 [29] = assay: as §1, with “mouse assessed as increase in C-caspase-3 level” for “mouse”; assay type: functional, organism-based; details: time 14.0 day
A-375 [30] = assay: as §1, with “mouse assessed as […]” for “mouse”; assay type: functional, organism-based; details: time 14.0 day

inhibition [6] | IC50 (HCT-116 [9]) | IC50 (HCT-116 [10]) | Structure (SMILES) | IC50 (SH-SY5Y) | IC50 (MDA-MB-231) | IC50 (HCT-116 [1]) | IC50 (MCF7) | IC50 (A-375 [2]) | IC50 (A549) | IC50 at 72 h [3] | IC50 at 72 h [4] | other results
Active | – | – | O=C1c2c[n+]([O-])c3ccccc3c2C(=O)c2c1c1ccccc1n2CCCCN1CCNCC1 | 1240 nM | 3310 nM | 700 nM | 12000 nM | 460 nM | 540 nM | 1380 nM | 760 nM | –
Active | – | – | CN(C)CCCCn1c2c(c3ccccc31)C(=O)c1c[n+]([O-])c3ccccc3c1C2=O | 250 nM | 350 nM | 450 nM | 220 nM | 470 nM | 310 nM | 300 nM | 520 nM | –
Active | – | – | CN1CCN(CCCCn2c3c(c4ccccc42)C(=O)c2c[n+]([O-])c4ccccc4c2C3=O)CC1 | 100 nM | 110 nM | 10 nM | 100 nM | 30 nM | 90 nM | 80 nM | 100 nM | inhibition [7]: Active; Activity [8]: Active

Continued, molecule first:

Structure (SMILES) | inhibition [6] | IC50 (HCT-116 [9]) | IC50 (HCT-116 [10]) | IC50 (SH-SY5Y) | IC50 (MDA-MB-231) | IC50 (HCT-116 [1]) | IC50 (MCF7) | IC50 (A-375 [2]) | IC50 (A549) | IC50 at 72 h [3] | IC50 at 72 h [4] | other results
O=C1c2c[n+]([O-])c3ccccc3c2C(=O)c2c1c1ccccc1n2Cc1cn([C@H]2C[C@H](O)[C@@H](CO)O2)nn1 | – | – | – | 620 nM | 580 nM | 120 nM | 530 nM | 390 nM | 350 nM | 280 nM | 3600 nM | solubility at 24 h [5]: > 5000 µg/mL
CN1CCN(CCCCCn2c3c(c4ccccc42)C(=O)c2c[n+]([O-])c4ccccc4c2C3=O)CC1 | Active | – | – | 830 nM | 2270 nM | 1220 nM | 1260 nM | 1710 nM | 870 nM | 1640 nM | – | –
O=C1c2c[n+]([O-])c3ccccc3c2C(=O)c2[nH]c3ccccc3c21 [CALOTHRIXIN A] | Active | 810 nM | 650 nM | 1380 nM | 480 nM | 620 nM | 540 nM | 660 nM | 320 nM | 400 nM | 890 nM | solubility at 24 h [5]: < 5 µg/mL; Activity (A-375 [11]): 56.28%; Activity (A-375 [12]): 33.26%; Activity (A-375 [13]): 10.46%
COc1cccc2c1C(=O)c1c(O)c3c(c(O)c1C2=O)C[C@@](O)(C(=O)CO)C[C@@H]3O[C@H]1C[C@H](N)[C@H](O)[C@H](C)O1 [DOXORUBICIN] | – | 2050 nM | 290 nM | 800 nM | 810 nM | 340 nM | – | 260 nM | – | – | – | –
COc1cc([C@@H]2c3cc4c(cc3[C@@H](O[C@@H]3O[C@@H]5CO[C@@H](C)O[C@H]5[C@H](O)[C@H]3O)[C@H]3COC(=O)[C@H]23)OCO4)cc(OC)c1O [ETOPOSIDE] | – | 3520 nM | 370 nM | 890 nM | 510 nM | 380 nM | 790 nM | 280 nM | 600 nM | 1220 nM | 1390 nM | Vd [14]: 0.432 L/kg; half-life [15]: 45 min; Tmax [16]: 5 min; Cmax [17]: 17700 ng/mL; AUC [18]: 6830 ng·h/mL; microsomal CLint at 2 ug/ml [19]: 66 µL/min/mg; half-life at 2 ug/ml [20]: 21 min; Stability [21]: Stable; selectivity ratio [22]: < 5; Activity (A-375 [11]): 56.15%; Activity (A-375 [12]): 31.79%; Activity (A-375 [13]): 12.07%; clearance [23]: 7 mL/min/kg; Activity (A-375 [24]): Active; Activity (A-375 [25]): Active; Activity [26]: Toxic; Activity [27]: Toxic; Activity (A-375 [28]): Active; Activity (A-375 [29]): Active; Activity (A-375 [30]): Active
CC1(C)O[C@@H](CO)[C@H](Cn2cc(Cn3c4c(c5ccccc53)C(=O)c3c[n+]([O-])c5ccccc5c3C4=O)nn2)O1 | – | – | – | > 1000 nM | 680 nM | 130 nM | 690 nM | 190 nM | 370 nM | 500 nM | 120 nM | –
CC(=O)OC[C@H]1O[C@@H](n2cc(Cn3c4c(c5ccccc53)C(=O)c3c[n+]([O-])c5ccccc5c3C4=O)nn2)[C@H](OC(C)=O)[C@@H]1OC(C)=O | – | – | – | 1900 nM | 600 nM | 650 nM | 460 nM | 150 nM | 1160 nM | 270 nM | 900 nM | –

Source: ChEMBL document CHEMBL5154929, “Optimization of the Natural Product Calothrixin A to Discover Novel Dual Topoisomerase I and II Inhibitors with Improved Anticancer Activity” (J Med Chem, 2022)
